“Also recorded” adds a separate entry of the source.
Legend:
[1] = tested on: iCell® neurons (human induced pluripotent stem cell-derived neurons); type: cell-based
[2] = tested on: Neuro2A cells; type: cell-based

GT1b
increase of sensitivity to neurotoxin polypeptide [1]: ~7 fold | increase in sensitivity to neurotoxin [2]: did not exhibit a comparable increase in sensitivity; also recorded: no increase in sensitivity
